Measurements from US12570666B2, “Furoindazole derivatives” (Bayer Aktiengesellschaft, priority 2019, dated 2026).

Molecular target: T1, human GPR84 receptor (Homo sapiens, UniProt Q9NQS5)
T1 construct: frozen aliquots prepared by acCELLerate; host or cells: CHO-K1
Test: cAMP HTRF assay for identification of cellular GPR84 antagonists
Type: cell-based
Details: CHO-K1 cells stably expressing human GPR84; Forskolin + agonist 6-OAU (EC80); average or median values
In short: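 Forskolin-stimulated CHO-K1 cells stably expressing human GPR84, agonist-suppressed cAMP measured by HTRF (665/620 ratio) after lysis. Compounds at 11 concentrations, 20 μM to 0.07 nM, duplicate; normalized to DMSO and no-agonist controls; IC50 by 4-parameter fit.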

T1 sequence (Q9NQS5 whole entry): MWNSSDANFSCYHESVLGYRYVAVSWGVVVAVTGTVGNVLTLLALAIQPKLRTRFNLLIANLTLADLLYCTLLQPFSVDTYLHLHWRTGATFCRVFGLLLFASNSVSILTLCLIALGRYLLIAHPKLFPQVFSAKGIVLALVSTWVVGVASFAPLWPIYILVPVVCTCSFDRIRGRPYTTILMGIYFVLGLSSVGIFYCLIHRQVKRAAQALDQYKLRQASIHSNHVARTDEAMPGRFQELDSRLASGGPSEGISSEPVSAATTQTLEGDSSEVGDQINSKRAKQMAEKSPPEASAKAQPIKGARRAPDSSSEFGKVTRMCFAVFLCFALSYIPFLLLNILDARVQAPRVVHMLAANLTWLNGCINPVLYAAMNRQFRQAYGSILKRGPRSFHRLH

IC50 | Compound
0.025 µM | C[C@@H]1Cc2oc(C(=O)NCc3ccn(C)n3)c(C(F)(F)F)c2-c2nn(C[C@H]3COCCO3)cc21 (single isomer, unassigned) [Example 257, (4R or 4S)-2-{[(2S)-1,4-dioxan-2-yl]methyl}-4-methyl-N-[(1-methyl-1H-pyrazol-3-yl)methyl]-8-(trifluoromethyl)-4,5-dihydro-2H-furo[2,3-g]indazole-7-carboxamide]
0.035 µM | Cc1c(C(=O)NC[C@@H]2CCCO2)oc2c1-c1nn(C[C@@H]3CCCO3)cc1CC2 [Example 107, 8-methyl-N,2-bis[(2S)-tetrahydrofuran-2-ylmethyl]-4,5-dihydro-2H-furo[2,3-g]indazole-7-carboxamide]
0.021 µM | O=C(NC[C@@H]1COCCO1)c1oc2c(c1C(F)(F)F)-c1nn(CC3CCN(C(=O)C4CC4)CC3)cc1CC2 [Example 285, 2-{[1-(cyclopropanecarbonyl)piperidin-4-yl]methyl}-N-{[(2R)-1,4-dioxan-2-yl]methyl}-8-(trifluoromethyl)-4,5-dihydro-2H-furo[2,3-g]indazole-7-carboxamide]
0.67 µM | Cc1c(C(=O)Nc2ccn(C)n2)oc2c1-c1nn(Cc3ccccn3)cc1CC2 [Example 40, 8-methyl-N-(1-methyl-1H-pyrazol-3-yl)-2-(pyridin-2-ylmethyl)-4,5-dihydro-2H-furo[2,3-g]indazole-7-carboxamide]
0.006 µM | Cc1cnc(CNC(=O)c2oc3c(c2C(F)(F)F)-c2nn(C[C@H]4COCCO4)cc2[C@H](C)C3)nc1 (single isomer, unassigned) [Example 303, (4R or 4S)-2-{[(2S)-1,4-dioxan-2-yl]methyl}-4-methyl-N-[(5-methylpyrimidin-2-yl)methyl]-8-(trifluoromethyl)-4,5-dihydro-2H-furo[2,3-g]indazole-7-carboxamide]
0.21 µM | Cc1cc(CNC(=O)c2oc3c(c2C)-c2nn(Cc4ccccn4)cc2CC3)no1 [Example 8, 8-methyl-N-[(5-methyl-1,2-oxazol-3-yl)methyl]-2-(pyridin-2-ylmethyl)-4,5-dihydro-2H-furo[2,3-g]indazole-7-carboxamide]
0.11 µM | CC(=O)N1CC(F)(Cn2cc3c(n2)-c2c(oc(C(=O)NC[C@@H]4CCCO4)c2C)CC3)C1 [Example 165, 2-[(1-acetyl-3-fluoroazetidin-3-yl)methyl]-8-methyl-N-[(2S)-tetrahydrofuran-2-ylmethyl]-4,5-dihydro-2H-furo[2,3-g]indazole-7-carboxamide]
0.064 µM | Cc1c(C(=O)NC[C@@H]2COCCO2)oc2c1-c1nn(Cc3ccccn3)cc1CC2 [Example 19-1, N-[(2R)-1,4-dioxan-2-ylmethyl]-8-methyl-2-(pyridin-2-ylmethyl)-4,5-dihydro-2H-furo[2,3-g]indazole-7-carboxamide]
0.079 µM | Cc1c(C(=O)NCC2CC(C)CO2)oc2c1-c1nn(C[C@H]3COCCO3)cc1C1(CC1)C2 (mixture of isomers) [Example 199]
1.41 µM | Cc1c(C(=O)NCc2ncon2)oc2c1-c1nn(Cc3ccccn3)cc1CC2 [Example 5]
0.238 µM | Cc1c(C(=O)NC[C@@H]2COCCO2)oc2c1-c1nn(C[C@H]3COCCO3)cc1C(C(F)(F)F)C2 (mixture of isomers) [Example 265, (4±)-N-{[(2R)-1,4-dioxan-2-yl]methyl}-2-{[(2S)-1,4-dioxan-2-yl]methyl}-8-methyl-4-(trifluoromethyl)-4,5-dihydro-2H-furo[2,3-g]indazole-7-carboxamide]
0.24 µM | Cc1cccc(Cn2cc3c(n2)-c2c(oc(C(=O)NCc4ncco4)c2C)CC3)n1 [Example 72, 8-methyl-2-[(6-methylpyridin-2-yl)methyl]-N-(1,3-oxazol-2-ylmethyl)-4,5-dihydro-2H-furo[2,3-g]indazole-7-carboxamide]
> 20 µM | Cc1c(C(=O)NCC(C)(C)O)oc2c1-c1nn(Cc3ccccn3)cc1CC2 [Example 10, N-(2-hydroxy-2-methylpropyl)-8-methyl-2-(pyridin-2-ylmethyl)-4,5-dihydro-2H-furo[2,3-g]indazole-7-carboxamide]
0.011 µM | Cc1c(C(=O)NC[C@@H]2COCCO2)oc2c1-c1nn(Cc3ccccn3)cc1C1(CC1)C2 [Example 150]
0.053 µM | O=C(NC[C@@H]1COCCO1)c1oc2c(c1C(F)F)-c1nn(C[C@H]3COCCO3)cc1CC2 [Example 244, 8-(difluoromethyl)-N-{[(2R)-1,4-dioxan-2-yl]methyl}-2-{[(2S)-1,4-dioxan-2-yl]methyl}-4,5-dihydro-2H-furo[2,3-g]indazole-7-carboxamide]
0.021 µM | Cc1c(C(=O)NC[C@@H]2COCCO2)oc2c1-c1nn(CC3(C)COC3)cc1CC2 [Example 94, N-[(2R)-1,4-dioxan-2-ylmethyl]-8-methyl-2-[(3-methyloxetan-3-yl)methyl]-4,5-dihydro-2H-furo[2,3-g]indazole-7-carboxamide]

IC50 | Compound
0.06 µM | COC(=O)N1CC(F)(Cn2cc3c(n2)-c2c(oc(C(=O)NC[C@@H]4CCCO4)c2C)CC3)C1 [Example 167, methyl 3-fluoro-3-[(8-methyl-7-{[(2S)-tetrahydrofuran-2-ylmethyl]carbamoyl}-4,5-dihydro-2H-furo[2,3-g]indazol-2-yl)methyl]azetidine-1-carboxylate]
0.185 µM | Cc1c(C(=O)NC[C@@H]2COCCO2)oc2c1-c1nn(C[C@H]3COCCO3)cc1[C@H](C(F)(F)F)C2 (single isomer, unassigned) [Example 265-1, (4R or 4S)-N-{[(2R)-1,4-dioxan-2-yl]methyl}-2-{[(2S)-1,4-dioxan-2-yl]methyl}-8-methyl-4-(trifluoromethyl)-4,5-dihydro-2H-furo[2,3-g]indazole-7-carboxamide]
0.18 µM | Cc1c(C(=O)NC[C@@H]2COCCO2)oc2c1-c1nn(C[C@@H]3CN(C)CCO3)cc1CC2 [Example 104, N[(2R)-1,4-dioxan-2-ylmethyl]-8-methyl-2-{[(2S)-4-methylmorpholin-2-yl]methyl}-4,5-dihydro-2H-furo[2,3-g]indazole-7-carboxamide]
0.031 µM | Cc1c(C(=O)NC[C@@H]2CCCO2)oc2c1-c1nn(CC3(F)COC3)cc1CC2 [Example 95, 2-[(3-fluorooxetan-3-yl)methyl]-8-methyl-N-[(2S)-tetrahydrofuran-2-ylmethyl]-4,5-dihydro-2H-furo[2,3-g]indazole-7-carboxamide]
0.012 µM | O=C(NC[C@@H]1COCCO1)c1oc2c(c1C(F)(F)F)-c1nn(C[C@H]3COCCO3)cc1CC2 [Example 320, N-{[(2R)-1,4-dioxan-2-yl]methyl}-2-{[(2S)-1,4-dioxan-2-yl]methyl}-8-(trifluoromethyl)-4,5-dihydro-2H-furo[2,3-g]indazole-7-carboxamide]
0.34 µM | Cc1c(C(=O)NCc2cc[nH]n2)oc2c1-c1nn(Cc3ccccn3)cc1CC2 [Example 22, 8-methyl-N-(1H-pyrazol-3-ylmethyl)-2-(pyridin-2-ylmethyl)-4,5-dihydro-2H-furo[2,3-g]indazole-7-carboxamide]
0.042 µM | O=C(NCc1ncco1)c1oc2c(c1C(F)(F)F)-c1nn(C[C@H]3COCCO3)cc1C1(CCC1)C2 [Example 272, 2′-{[(2S)-1,4-dioxan-2-yl]methyl}-N-[(1,3-oxazol-2-yl)methyl]-8′-(trifluoromethyl)-2′,51-dihydrospiro[cyclobutane-1,4′-furo[2,3-g]indazole]-7′-carboxamide]
0.02 µM | Cc1c(C(=O)NC[C@@H]2COCCO2)oc2c1-c1nn(Cc3ncccc3Cl)cc1CC2 [Example 61, 2-[(3-chloropyridin-2-yl)methyl]-N-[(2R)-1,4-dioxan-2-ylmethyl]-8-methyl-4,5-dihydro-2H-furo[2,3-g]indazole-7-carboxamide]
0.061 µM | Cc1c(C(=O)NCC2CC(C)CO2)oc2c1-c1nn(Cc3ccccn3)cc1CC2 (mixture of isomers) [Example 175]
0.013 µM | Cc1c(C(=O)NC[C@@H]2CCCO2)oc2c1-c1nn(Cc3ccncc3)cc1CC2 [Example 46, 8-methyl-2-(pyridin-4-ylmethyl)-N-[(2S)-tetrahydrofuran-2-ylmethyl]-4,5-dihydro-2H-furo[2,3-g]indazole-7-carboxamide]
0.154 µM | CN1CCC(Cn2cc3c(n2)-c2c(oc(C(=O)NC[C@@H]4COCCO4)c2C(F)(F)F)CC3)CC1 [Example 309, N-{[(2R)-1,4-dioxan-2-yl]methyl}-2-[(1-methylpiperidin-4-yl)methyl]-8-(trifluoromethyl)-4,5-dihydro-2H-furo[2,3-g]indazole-7-carboxamide]
3.47 µM | Cc1ccn(CCNC(=O)c2oc3c(c2C(F)(F)F)-c2nn(C[C@H]4COCCO4)cc2CC3)n1 [Example 234, 2-[(2S)-1,4-Dioxan-2-ylmethyl]-N-[2-(3-methyl-1H-pyrazol-1-yl)ethyl]-8-(trifluormethyl)-4,5-dihydro-2H-furo[2,3-g]indazol-7-carboxamide]
0.043 µM | Cc1c(C(=O)NC[C@@H]2COCCO2)oc2c1-c1nn(Cc3ccccn3)cc1C1(CCC1)C2 [Example 134]
0.055 µM | Cn1ccc(CNC(=O)c2oc3c(c2C(F)(F)F)-c2nn(Cc4ccccn4)cc2CC3)n1 [Example 117, N-[(1-methyl-1H-pyrazol-3-yl)methyl]-2-(pyridin-2-ylmethyl)-8-(trifluoromethyl)-4,5-dihydro-2H-furo[2,3-g]indazole-7-carboxamide]
0.005 µM | CC1Cc2oc(C(=O)NC[C@@H]3CCCO3)c(C(F)(F)F)c2-c2nn(C[C@H]3COCCO3)cc21 (mixture of isomers) [Example 255, (4±)-2-{[(2S)-1,4-dioxan-2-yl]methyl}-4-methyl-N-{[(2S)-oxolan-2-yl]methyl}-8-(trifluoromethyl)-4,5-dihydro-2H-furo[2,3-g]indazole-7-carboxamide]
0.026 µM | O=C(NC[C@@H]1CCCO1)c1oc2c(c1C(F)(F)F)-c1nn(CC3CCOCC3)cc1CC2 [Example 243, 2-[(oxan-4-yl)methyl]-N-{[(2S)-oxolan-2-yl]methyl}-8-(trifluoromethyl)-4,5-dihydro-2H-furo[2,3-g]indazole-7-carboxamide]
